The source of these data is ChEMBL document CHEMBL5131538 (J Med Chem, 2022).

For orientation: IC50 means the concentration that inhibits the measured activity by half. A higher IC50 goes with weaker potency in that assay. Usually ED50 stands for the midpoint of the dose-response relation.

Structures are written as SMILES. Where only a bound is given, the exact number is not on record here.

The target of one series is Estrogen receptor beta (Homo sapiens, UniProt Q92731). Briefly: biochemical.
Series [1] is described as follows: Volume of distribution at steady state in Sprague-Dawley rat at 1 mg/kg, iv. In kind it is ADME, organism-based. As to conditions: in vivo, read-out: Vdss.
For series [2], the system named is Rattus norvegicus. Briefly: Organ protective activity in aldosterone-induced uninephrectomized Sprague-Dawley rat model assessed as myocardial fibrosis in heart by measuring pathological lesion score at 3 mg/kg/day by sirius red and H and E staining based histological analysis (reference value: 1.6 +/- 0.3). Type of series: functional.
The subject of series [3] is Rattus norvegicus. Briefly: Organ protective activity in aldosterone-induced uninephrectomized Sprague-Dawley rat model assessed as renal tubular ectasia in kidney by measuring pathological lesion score at 3 mg/kg/day by PAS and H and E staining based histological analysis (reference value: 1.3 +/- 0.4). Type of series: functional.
Series [4] concerns Rattus norvegicus. Kind of series: Organ protective activity in aldosterone-induced uninephrectomized Sprague-Dawley rat model assessed as renal tubular regeneration in kidney by measuring pathological lesion score at 10 mg/kg/day by PAS and H and E staining based histological analysis (reference value: 1.7 +/- 0.5). Type of series: functional.
The test system of series [5] is Rattus norvegicus. Briefly: Organ protective activity in aldosterone-induced uninephrectomized Sprague-Dawley rat model assessed as interstitial cellular infiltration in kidney by measuring pathological lesion score at 10 mg/kg/day by PAS and H and E staining based histological analysis (reference value: 1.4 +/- 0.4). Type of series: functional.
Series [6] is described as follows: In vivo antagonist activity at MR in po dosed Sprague-Dawley rat assessed as reversal of aldosterone induced decrease in urinary Na+/K+ ratio preincubated for 3 hrs followed by aldosterone stimulation and measured over 5 hrs by automated electrolyte analyzer anlysis. Type of series: functional. As to conditions: time 8 hrs.
For the next series, the target named is T1, Glucocorticoid receptor (Homo sapiens, UniProt P04150).
T1 sequence (P04150 whole entry): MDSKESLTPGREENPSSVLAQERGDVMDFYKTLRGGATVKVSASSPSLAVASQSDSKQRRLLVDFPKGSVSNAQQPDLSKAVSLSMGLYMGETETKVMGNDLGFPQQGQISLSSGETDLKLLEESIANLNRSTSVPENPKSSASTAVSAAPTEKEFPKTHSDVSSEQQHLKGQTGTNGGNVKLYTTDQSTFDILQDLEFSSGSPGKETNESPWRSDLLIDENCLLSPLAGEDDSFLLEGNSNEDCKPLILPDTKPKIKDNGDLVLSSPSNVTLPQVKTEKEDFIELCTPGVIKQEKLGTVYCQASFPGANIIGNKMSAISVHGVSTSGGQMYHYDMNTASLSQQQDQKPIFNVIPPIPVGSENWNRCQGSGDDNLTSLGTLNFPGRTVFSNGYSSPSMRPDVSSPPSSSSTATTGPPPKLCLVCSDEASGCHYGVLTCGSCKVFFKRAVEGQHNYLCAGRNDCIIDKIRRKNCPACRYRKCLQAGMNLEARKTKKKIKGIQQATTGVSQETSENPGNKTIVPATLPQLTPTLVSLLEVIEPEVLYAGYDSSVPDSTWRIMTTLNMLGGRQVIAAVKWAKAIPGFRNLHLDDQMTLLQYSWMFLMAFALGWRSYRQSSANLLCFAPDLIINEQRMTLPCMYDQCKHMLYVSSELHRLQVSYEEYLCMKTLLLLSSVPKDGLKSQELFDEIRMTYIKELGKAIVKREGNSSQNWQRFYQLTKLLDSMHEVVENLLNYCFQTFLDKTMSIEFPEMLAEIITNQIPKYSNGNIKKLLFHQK
Briefly: biochemical.

The subject of series [7] is Rattus norvegicus. Kind of series: Organ protective activity in aldosterone-induced uninephrectomized Sprague-Dawley rat model assessed as renal tubular ectasia in kidney by measuring pathological lesion score at 1 mg/kg/day by PAS and H and E staining based histological analysis (reference value: 1.3 +/- 0.4). Type of series: functional.
The subject of series [8] is Rattus norvegicus. Briefly: Antihypertensive activity against aldosterone induced uninephrectomized Sprague-Dawley rat assessed as inhibition of area under the curve changes in systolic blood pressure at 10 mg/kg, po qd administered for 4 weeks (reference value: 294.5 +/-48.5 mmHg.day). Type of series: functional, organism-based.

Sequence of Estrogen receptor beta (Q92731 whole entry): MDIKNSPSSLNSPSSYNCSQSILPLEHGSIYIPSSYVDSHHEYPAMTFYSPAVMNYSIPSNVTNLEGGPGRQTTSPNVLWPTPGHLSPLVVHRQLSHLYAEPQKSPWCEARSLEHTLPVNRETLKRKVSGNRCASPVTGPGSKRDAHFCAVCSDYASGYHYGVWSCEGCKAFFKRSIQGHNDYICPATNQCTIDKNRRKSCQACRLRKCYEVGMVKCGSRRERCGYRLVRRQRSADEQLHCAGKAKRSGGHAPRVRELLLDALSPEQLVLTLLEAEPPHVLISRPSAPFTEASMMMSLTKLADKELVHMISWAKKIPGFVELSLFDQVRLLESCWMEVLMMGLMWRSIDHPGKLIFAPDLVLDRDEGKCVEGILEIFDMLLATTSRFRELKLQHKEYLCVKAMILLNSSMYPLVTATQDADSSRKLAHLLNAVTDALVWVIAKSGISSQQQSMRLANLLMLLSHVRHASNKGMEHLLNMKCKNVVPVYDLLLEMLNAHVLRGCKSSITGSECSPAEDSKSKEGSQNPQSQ
Description for Estrogen receptor beta: Displacement of [3H]-estradiol from recombinant full-length human estrogen beta receptor expressed in baculovirus infected insect cells incubated overnight by liquid scintillation counting analysis
Description for Glucocorticoid receptor: Displacement of [3H]-dexamethasone from recombinant full length human glucocorticoid receptor expressed in baculovirus infected insect cells incubated overnight by liquid scintillation counting analysis

For the molecule `CC1(C)Oc2cc(NS(C)(=O)=O)ccc2N(c2ccc(F)cc2)C1=O` [MT-3995], the IC50 on Estrogen receptor beta and at Glucocorticoid receptor was above 100 µM each time. The Vd in series [1] came out at 1.08 L/kg. For the same molecule, the Activity was determined as 0.3 in the series with Rattus norvegicus [2]; 0.1 with Rattus norvegicus [3]; 0 in the series with Rattus norvegicus [4]; 0.1 with Rattus norvegicus [5]; 1.1 in the series with Rattus norvegicus [7]. The ED50 in series [6] is 1.1 mg/kg. Further, in the series with Rattus norvegicus [8], the AUC is 249 mmHg.day.
